Data published in patent US5216147A, “Radioactive benzodiazepine derivatives” (Sumitomo Chemical Company, Limited, priority 1987, dated 1993).

Target: Benzodiazepine Receptors
Assay: Benzodiazepine receptor binding affinity: displacement of 3H-diazepam from rat synaptosomal membranes
Settings: for Ki: 3H-diazepam; for Ki / IC50: 4° C., 15 min, triplicate; for IC50: inhibition of specific 3H-diazepam binding; for Relative Potency: relative to Diazepam = 100, 3H-diazepam
Procedure: 2'-Iododiazepam, Diazepam and Fludiazepam were screened as for benzodiazepine binding affinity according to the method reported by Nakatsuka (Life Sciences 36 (2) 113-119, 1985). An aliquot of synaptosomal membrane preparations was incubated at 4° C. for 15 min. with each of the unlabeled competing drugs (2'-Iodoiazepam, Diazepam and Fludiazepam) in different concentration and 3H-diazepam. The incubation was terminated by adding ice-cold Tris-HCl buffer followed by a rapid filtration through a Whatman GF/B filter. The bound 3H-diazepam retained on the filter was extracted with ACS-II (Amersham) and counted. All incubations were conducted in triplicate. Nonspecific binding was determined in tubes containing diazepam. Specific binding was calculated by subtracting the nonspecific binding from the total binding. IC50 values, the concentrations of the tested compounds that cause 50% inhibition of the specific 3H-diazepam were determined from the displacement curves obtained.

SMILES: CN1C(=O)CN=C(c2ccccc2F)c2cc(Cl)ccc21 [Fludiazepam]
- Ki: 1 nM
- IC50: 1.2 nM
- Relative Potency: 770

SMILES: CN1C(=O)CN=C(c2ccccc2)c2cc(Cl)ccc21 [Diazepam]
- Ki: 7.7 nM
- IC50: 9 nM
- Relative Potency: 100

SMILES: CN1C(=O)CN=C(c2ccccc2I)c2cc(Cl)ccc21 [2'-Iododiazepam, 7-chloro-1-methyl-5-(2-iodophenyl)-3H-1,4-benzodiazepin-2-one]
- Ki: 0.21 nM
- IC50: 0.25 nM
- Relative Potency: 3600
